This is an account of results in ChEMBL document CHEMBL1123015, “Thiol-containing androgens as suicide substrates of aromatase” (J Med Chem, 1985).

In this series the target is T1, Aromatase (Homo sapiens, UniProt P11511).
T1 sequence (P11511 whole entry): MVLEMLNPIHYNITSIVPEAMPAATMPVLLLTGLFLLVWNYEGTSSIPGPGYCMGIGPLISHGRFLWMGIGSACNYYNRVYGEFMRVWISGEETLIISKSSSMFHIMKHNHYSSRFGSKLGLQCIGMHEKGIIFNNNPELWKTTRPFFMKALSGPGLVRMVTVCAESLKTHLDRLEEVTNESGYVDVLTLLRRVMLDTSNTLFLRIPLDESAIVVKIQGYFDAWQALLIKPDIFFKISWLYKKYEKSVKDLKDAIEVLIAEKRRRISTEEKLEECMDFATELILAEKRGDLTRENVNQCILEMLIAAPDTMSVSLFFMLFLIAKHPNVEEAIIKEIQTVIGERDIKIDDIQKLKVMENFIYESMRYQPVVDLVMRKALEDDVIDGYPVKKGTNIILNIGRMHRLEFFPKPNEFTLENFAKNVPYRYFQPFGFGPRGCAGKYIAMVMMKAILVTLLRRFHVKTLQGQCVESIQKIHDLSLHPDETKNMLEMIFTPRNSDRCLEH
Kind of series: Percentage aromatase activity remaining in human placental microsomes with NADPH. In kind it is functional, Placenta.

`C[C@]12CC[C@H]3[C@@H](CCC4=CC(=O)CC[C@@]43CS)[C@@H]1CCC2=O` yielded an Activity of 94%.
